What was measured:
[1] = system: NFAT activation in Jurkat cells with NFAT-LUC reporter (JNL); test: Jurkat NFAT-LUC reporter assay, EGFRvIII RCAR with intracellular FKBP/FRB switch; format: cell-based
Method: Jurkat cells with NFAT-LUC reporter (JNL) were grown to the density of 0.5×10^6/ml in Jurkat cell growth media with puromycin at 0.5 μg/ml. For each transfection 2.5×10^6 cells were spin down at 100 g for 10 minutes. Two μg of DNA per construct were used per transfection. Amaxa Nucleofector solution V and supplement I was mixed and 100 μl was added into the tube with DNA construct. The mixture was then added to the cells and transferred to the electroporation cuvette. Electroporation was done under setting X-001 using Amaxa Nucleofector II Device. 0.5 ml of growth media was added immediately after eletroporation and the mixture were transferred into 2 ml growth media in one well of the 6-well plate. After one hour, A/Z compound was applied at the final concentration of 500 nM. The cells were incubated in the 37° C. incubator with 5% CO2 overnight for 18 hrs. Tissue culture plate was coated with 5 μg/ml of EGFRvIII-Fc or IgG1-Fc for 2 hrs, blocked with the blocking buffer (DPBS with 5% serum) for 1 hour. The transfected cells with or without A/Z compound were resuspended and added to the target plate with 100 μl per well and incubated for 18 hrs. Luciferase One Glo reagent 100 μl was added per well. The samples were incubated for 5 min at 37° C. and then luminescence is measured using a luminometer.
Specifically, JNL were grown to the density of 0.5×10^6/ml in Jurkat cell growth media with puromycin at 0.5 μg/ml. For each transfection 2.5×10^6 cells were spin down at 100 g for 10 minutes. Two μg of DNA per construct were used per transfection. Amaxa Nucleofector solution V and supplement I was mixed and 100 μl was added into the tube with DNA construct. […] The samples were incubated for 5 min at 37° C. and then luminescence is measured using a luminometer.
To determine the dose response, rapaloque (“A/C heterodimerizer” AP21967), at various concentrations, was applied to the transfected cells that were cotransfected with EGFRvIII clone 139-CD8alphaTM-FKBP (SEQ ID NO: 5, construct 66) and FRB-4-1BB-CD3zeta (SEQ ID NO: 6, construct 67) and NFAT activation was measured. […]

[2] = system: NFAT activation in Jurkat cells with NFAT-LUC reporter (JNL), PDL1-Fc target; test: Activation assay of redirected inhibitory PD1 CAR / PD1 RCAR; format: cell-based
Method: Jurkat cells with NFAT-LUC reporter (JNL) were grown to the density of 0.5×10^6/ml in Jurkat cell growth media with puromycin at 0.5 μg/ml. For each transfection 3×10^6 cells were spin down at 100 g for 10 minutes. Four μg DNA per construct were used per transfection. Amaxa Nucleofector solution V and supplement I was mixed and 100 μl was added into the tube with DNA construct. The mixture was then added to the cells and transferred to the electroporation cuvette. Electroporation was done under setting X-001 using Amaxa Nucleofector II Device. 0.5 ml of growth media was added immediately after eletroporation and the mixture were transferred into 2 ml growth media in one well of the 6-well plate. After two hours, the rapalogue compound at various concentrations was added to cells. The cells were applied to tissue culture plate wells that were coated by the target. Tissue culture plate was coated with 5 μg/ml of PDL1-Fc or IgG1-Fc or any target for 2 hrs at 37° C., then blocked with the blocking buffer (DPBS with 5% serum) for 30 minutes. The transfected cells were added to the target plate with 100 μl per well and incubated further for 16 hrs. Luciferase One Glo reagent 100 μl was added per well. The samples were incubated for 5 min at 37° C. and then luminescence is measured using Envision plate reader. […]

[3] = system: NFAT activation in Jurkat cells with NFAT-LUC reporter (JNL); test: Jurkat NFAT-LUC assay, EGFRvIII RCAR with extracellular FKBP/FRB switch; format: cell-based; details: 250 nM, external switch
Method: In this example, the switch is designed by fusing a leader sequence to the 139 scFv followed by linker and the first switch domain—FKBP, a hinge region and a transmembrane region (SEQ ID NO: 31). The second construct is designed by fusing a leader sequence to the FRB switch domain, a transmembrane region and the intracellular signaling domains 4-1BB followed by CD3zeta (SEQ ID NO: 32). The extracellular switch transfections and activations were carried out essentially as described for the intacellular switches in Example 1.

[4] = system: reporter under NFAT control in JNL cells; test: Dimerization molecule dose response, single vector construct 143775 in JNL cells, CD19 target; format: cell-based; details: nM to sub-nM doses
From the text: The constructs and viral particles were made and tested essentially as described in Example 11. Viral particles were introduced into JNL cells and evaluated for activity essentially as described in Example 1 except that the target was CD19 (as opposed to EGFRviii).
Construct 143775 was introduced into cells and the affect of dimerization molecule concentration on activation evaluated essentially as described in Example 14.

[5] = molecular target: biotinylated FKBP in the presence of everolimus; test: FRB direct binding assay (AlphaLISA); details: 30 nM biotinylated FKBP and FLAG FRB protein; everolimus serial diluted from 600 nM
Sequence of biotinylated FKBP in the presence of everolimus (P62942 2-108 limits assumed): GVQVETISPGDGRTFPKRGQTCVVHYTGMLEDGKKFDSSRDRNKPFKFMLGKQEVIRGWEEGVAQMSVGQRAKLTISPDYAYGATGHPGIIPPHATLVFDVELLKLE
Method: FRB mutations were also ranked in an alternative assay format. […] All dilutions were made in 1× AlphaLISA Immunoassay buffer (PerkinElmer). Anti-Flag acceptor beads (PerkinElmer) were added at 10 ug/ml final concentration and incubated for one hour at room temperature. Streptavidin donor beads (PerkinElmer), were then added at a final concentration of 40 ug/ml and the plate was protected from light and incubated for 30 minutes at room temperature. The plate was then read on the PerkinElmer EnVision Multiplate reader equipped with the Alpha Module using excitation of 680 nm and a 570 nm Emission filter.

[6] = system: NFAT activation in Jurkat cells with NFAT-LUC reporter (JNL); test: Jurkat NFAT-LUC assay, peptide tag (myc/Flag) dimerization switch; format: cell-based
Method: The non-regulatable CAR construct, 139scFv-BBZ, SEQ ID: 7, will be used as a control. Jurkat cells with NFAT-LUC reporter (JNL) were grown to the density of 0.5×10^6/ml in Jurkat cell growth media with puromycin at 0.5 μg/ml. For each transfection 2.5×10^6 cells were spun down at 100 g for 10 minutes. Two μg of DNA per construct was used per transfection. Amaxa Nucleofector solution V and supplement I were mixed and 100 μl was added into the tube with DNA construct. The mixture was then added to the cells and transferred to the electroporation cuvette. Electroporation was done under setting X-001 using Amaxa Nucleofector II Device. 0.5 ml of growth media was added immediately after eletroporation and the mixture were transferred into 2 ml growth media in one well of the 6-well plate. The cells were incubated in the 37° C. incubator with 5% CO2 overnight. Rabbit polyclonal antibody against myc tag was added to the cells which were transfected with RCAR construct with myc tag as the extracellular domain. The concentration of the polyclonal antibody was at 100 nM. One and half hour later, 100 nM of anti rabbit antibody was added in order to enhance cluster formation. The cell mixture was incubated at 37° C. for 18 hrs. Luciferase One Glo reagent 100 μl was added per well. The samples were incubated for 5 min at 37° C. and then luminescence was measured using a luminometer.
Similarly, a construct with Flag peptide tag as the extracellular domain was used to transfect reporter cells. Rabbit polyclonal antibody against Flag peptide tag was used at 100 nM; and to facilitate further clustering, an antibody against the rabbit polyclonal antibody was used at 100 nM. In addition, a construct with scFv 139 as the extracellular domain was used to transfect reporter cells, and EGFRvIII-Fc at 100 nM was used, and one and half hour later anti-Fc antibody was used.

Molecule: CO[C@H]1[C@@H](O)[C@H](C)C[C@H](C)/C=C/C=C/C=C(\C)[C@@H](c2c[nH]c3c(C)cccc23)C[C@@H]2CC[C@@H](C)[C@@](O)(O2)C(=O)C(=O)N2CCCC[C@H]2C(=O)O[C@H]([C@H](C)CC2CC[C@@H](O)[C@H](OC)C2)C[C@H](O)[C@H](C)/C=C(\C)[C@H]1O (some centres unmarked) [AP21967]
- fold of induction of NFAT mediated by the target ([1]; 0.8 nM rapalogue, constructs 66 and 67): 2-3 fold
- fold activation of NFAT ([1]; 500 nM to as low as 20 nM, constructs 66 and 67, FIG. 12B): remained relatively constant
- target regulated activation ([1]; 500 nM, EGFRvIII-Fc target, FIG. 12A): significant target regulated activation
- induction of signaling by PDL-1 target ([2]; 500 nM AP21967, PD1 RCAR (PD1-ECD-TM-FRB and FKBP-41BB-CD3 zeta)): significant induction of signaling
- dose response, activation of NFAT signaling ([2]; varying concentrations, PD1 RCAR, FIG. 18): potent even at sub nM concentration
- target regulated activation [3]: significant target regulated activation

Molecule: CO[C@H]1C[C@@H]2CC[C@@H](C)[C@@](O)(O2)C(=O)C(=O)N2CCCC[C@H]2C(=O)O[C@H]([C@H](C)C[C@@H]2CC[C@@H](O)[C@H](OC)C2)CC(=O)[C@H](C)/C=C(\C)[C@@H](O)[C@@H](OC)C(=O)[C@H](C)C[C@H](C)/C=C/C=C/C=C/1C [rapamycin]
- activation [4]: effective at a broad range of concentrations

Molecule: E2032I: FRB point mutant; His-FRB SEQ ID NO: 207, His-FLAG-FRB SEQ ID NO: 213
- EC50 [5]: 2.46 nM

Molecule: E2032L: FRB point mutant; His-FRB SEQ ID NO: 208, His-FLAG-FRB SEQ ID NO: 214
- EC50 [5]: 2.15 nM

Molecule: RCAR with Flag tag: flag peptide tag fused to linker, 4-1BB and CD3zeta, SEQ ID NO: 20
- activation ([6]; rabbit polyclonal anti-Flag antibody and anti-rabbit antibody, 100 nM each): only showed activation when both crosslinking reagents were added

Molecule: RCAR with c-myc peptide tag: c-myc peptide tag fused to linker, 4-1BB and CD3zeta, SEQ ID NO: 21
- activation after addition of anti rabbit antibody ([6]; anti-myc antibody 100 nM plus anti rabbit antibody 100 nM): further enhanced
- NFAT activity ([6]; rabbit polyclonal anti-myc antibody 100 nM, compared to other antibodies): higher NFAT activity

Molecule: T2098L: FRB point mutant; His-FRB SEQ ID NO: 209, His-FLAG-FRB SEQ ID NO: 215
- EC50 [5]: 1.44 nM

Molecule: Wild type FRB: wild-type FRB; His-FRB SEQ ID NO: 206 (competition), His-FLAG-FRB SEQ ID NO: 212 (direct binding)
- EC50 [5]: 3.9 nM
